Consider four compounds from publication PMC10180197, “Novel Pyrimidine Derivatives as Antioxidant and Anticancer Agents: Design, Synthesis and Molecular Modeling Studies” (Molecules, 2023).

By melting point is commonly meant the temperature, or range, at which the solid turns liquid. As a reminder, the inhibition is how much of the control response was suppressed. Broadly, the viability is a per cent measure of how many cells are alive, often set against a control. High values mean less harm to the cells, low ones more harm to the cells.

Data set [1] in a line: Inhibition of AAPH induced linoleic acid peroxidation. As to the method:
For the lipid peroxidation study, 2,2′-Azobis(2-methylpropionamidine) dihydrochloride (AAPH) was used as the generator of peroxy radicals and sodium linoleate as the substrate that undergoes peroxidation. The conversion of linoleic acid to 13-hydroperoxy-linoleic acid was recorded at 234 nm. The change of absorbance reflects the possible antioxidant activity of the tested compounds, in comparison with the reference compound, Trolox.
In vitro study was performed as reported previously by our group. AAPH was used as a free radical generator of alkyl peroxyl radicals. For this experimental procedure, 10 μL of the tested compound (from the stock solution), 10 μL sodium linoleate (16 mM), 50 μL AAPH (40 mM) and 930 μL phosphate-buffered solution (pH 7.4) were added in a UV cuvette (1 mL), pre thermostated at 37 °C. The ability of the compounds to prevent the oxidation of linoleic acid from alkyl peroxyl radicals was evaluated by recording the change of absorbance at 234 nm, due to the conversion of linoleic acid to 13-hydroperoxy-linoleic acid. Trolox was used as the reference.

Data set [2] in a line: Experimental determination of lipophilicity as RM values (RP-TLC). The data set is classed as physicochemical. The settings on record: methanol/water 70/30 v/v, 24 °C, SD < 10%. The text has this: Lipophilicity is an important physicochemical parameter of a drug candidate, linking solubility and membrane permeability with the ADMET (absorption, distribution, metabolism, elimination and toxicity) properties and the overall suitability of a molecule. Reversed-phase thin-layer chromatography was the method used to experimentally determine the lipophilic character of the synthesized compounds as RM values (Table 2). Lipophilicity was also theoretically calculated as clog P values using the Bio-Loom program of BioByte Corp (http://www.biobyte.com/, (accessed on 1 March 2023)). An attempt was made to correlate the experimental RM values with the theoretically calculated clog P values (Table 2). […] This disagreement could be attributed to several factors, e.g., different solvation, silanophilic interactions and hydrogen bonding.
Lipophilicity as RM values was determined through reversed-phase TLC (RP-TLC) on silica gel plates impregnated with 5% v/v liquid paraffin in light petroleum ether. Methanol/water mixture (70/30, v/v) was used as mobile phase. Closed chromatography tanks saturated with the mobile phase at 24 °C were used for the development of the plates while the spots were detected under UV light. For the determination of RM values, five individual measurements of Rf values were recorded, and the RM values were derived from the following Equation (1). (1) RM=log1/Rf−1

The target in a further data set is T1, soybean lipoxygenase (Glycine max, UniProt P08170).
T1 construct: purchased Sigma Aldrich- Merck KGaA, Darmstadt, Germany
T1 sequence (P08170 1-839): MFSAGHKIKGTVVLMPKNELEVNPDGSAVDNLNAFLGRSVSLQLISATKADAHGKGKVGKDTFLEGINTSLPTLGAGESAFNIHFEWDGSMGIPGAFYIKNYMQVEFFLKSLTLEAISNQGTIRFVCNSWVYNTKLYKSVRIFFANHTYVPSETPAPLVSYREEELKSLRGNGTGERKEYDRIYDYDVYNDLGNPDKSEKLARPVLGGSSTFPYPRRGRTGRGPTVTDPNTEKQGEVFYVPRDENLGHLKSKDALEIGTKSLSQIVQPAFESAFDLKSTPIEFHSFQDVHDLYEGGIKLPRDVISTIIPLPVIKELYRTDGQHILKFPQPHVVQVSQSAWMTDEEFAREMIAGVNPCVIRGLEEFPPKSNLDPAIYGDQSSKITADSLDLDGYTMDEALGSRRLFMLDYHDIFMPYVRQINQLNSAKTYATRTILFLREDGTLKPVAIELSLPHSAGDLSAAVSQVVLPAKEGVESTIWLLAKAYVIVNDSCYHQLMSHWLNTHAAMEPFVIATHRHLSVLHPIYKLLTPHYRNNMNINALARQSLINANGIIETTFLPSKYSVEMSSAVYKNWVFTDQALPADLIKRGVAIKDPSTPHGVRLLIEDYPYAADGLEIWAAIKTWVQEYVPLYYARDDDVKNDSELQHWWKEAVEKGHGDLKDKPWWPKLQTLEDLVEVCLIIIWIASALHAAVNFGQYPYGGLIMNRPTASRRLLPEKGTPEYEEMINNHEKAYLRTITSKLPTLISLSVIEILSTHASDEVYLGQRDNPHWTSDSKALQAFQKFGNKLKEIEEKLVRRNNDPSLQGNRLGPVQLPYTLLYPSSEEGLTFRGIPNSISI
The experiment in a line: Inhibition of soybean lipoxygenase. Format: biochemical. The following applies: 100 μM; cells of the mixed column without μM; read-out: LOX % Inhibition 100 μM. The text has this: Lipoxygenase (LOX) is the key enzyme in the biosynthesis of inflammatory mediators; thus, it is considered a target for inflammatory diseases. Soybean LOX is a plant enzyme that has been used widely as a prototype for studying the functional and structural properties of the homologous family of lipoxygenases, presenting satisfactory homology with the human 5-LOX [42]. Linoleic acid is the most common substrate in plant LOX. […] Lipophilicity is considered one of the most important parameters with regard to LOX inhibitors according to the literature.
In vitro study was performed as reported previously by our group. In this experiment, 10 μL of the tested compound (from the stock solution) were incubated with 100 μL sodium linoleate (diluted in Tris buffer), 200 μL LOX solution (1:9 × 10^−4 w/v in saline) and 690 μL Tris buffer (pH 9.0) at room temperature. The absorbance was measured at 234 nm, where the change of absorbance was recorded due to the formation of 13-hydroperoxy-linoleic acid. […] In order to determine the IC50 values, different concentrations were used.

A short description of data set [3]: MTT cell viability assay, HaCaT. The data set is classed as cell-based, human. The settings on record: human, HaCaT cells (epidermal keratinocyte cell line), 100 μΜ. As for the experimental part: The MTT (3-(4,5-dimethylthiazol-2-yl)-2,5-diphenyltetrazolium bromide) assay is a colorimetric method that is used for the evaluation of cell viability. MTT is converted into colored formazan crystals, indicating the activity of mitochondria and therefore the viability of the cells. Unlike dead cells, the metabolic processes of living cells are functional, meaning that the dehydrogenase enzymes are able to reduce the yellow MTT salt solution to purple crystals, at 37 °C. The intensity of the sample’s color, due to the amount of formazan crystals, is proportional to the number of the living cells in it. Additionally, the colored product is dissolved in various solubilizing agents, such as dimethyl sulfoxide (DMSO). The colored products can be quantitatively measured at 450 nm with a plate reader spectrophotometer. In this study, the human epidermal keratinocyte cell line (HaCaT) was treated with different concentrations (100 μM, 50 μM, 10 μM and 1 μM) of the tested compounds and then the viability rates at each effect were calculated.
(§1) Τhe MTT assay was used to evaluate cell viability or cell toxicity, depending on the cell line being tested. The experimental procedure was performed in a 96-well plate, where the cells were seeded and incubated (37 °C, 5% CO2) for 24 h to grow and cover the surface of the wells. Τhe seeding concentrations for the HaCaT and A549 cells were 30 × 10^4 cells/mL and 20 × 10^4 cells/mL, respectively. After the first incubation, the solutions of the compounds (with different concentrations) were added to the adherent cells and incubated for another 24 h. The compounds were tested in triplicate against the control (only cells in medium), the blank (only medium) and the positive/negative control (cells in 100 μM silibinin solution) triplicates. Silibinin, a flavonoid with known anticancer activities, was used as a negative control for the cell viability assay and as positive control for the cytotoxicity testing assay. The light-sensitive MTT-standard solution was prepared by dissolving 1 mg/mL MTT in PBS and then filtrated (in a […] filter (Millipore, Carrigtwohill, Ireland)). On the third day, an appropriate amount of ΜΤΤ solution was added to each well and the plate was incubated for 4 h. During the incubation time, the formazan crystals were formed, which were then dissolved with 100 μL DMSO per well. Finally, the plate was stirred for 30 min, and the optical density (OD) was measured in a plate reader spectrophotometer at 450 nm.

Another data set deals with A549 cell line. Put plainly: MTT cytotoxicity assay, A549. The data set is classed as cell-based, human. The following applies: Homo sapiens; A549, 100 μΜ, 24 h; read-out: % Cell Toxicity 100 μΜ. As for the experimental part:
The compounds of this study were also tested for their cytotoxic effects against the adenocarcinomic human alveolar basal epithelial cell line (A549) at different concentrations (100 μM, 75 μΜ, 50 μM and 10 μM).
as §1
For orientation: Formazan colour is commonly taken as a measure of viable cells.

Data set [4] in a line: Reducing activity of the stable radical DPPH. As for the experimental part: All the synthesized compounds were studied for their ability to interact with the stable free 2,2-diphenyl-1-picrylhydrazyl radical (DPPH) at a concentration of 100 μM after 20 min and 60 min (Table 4). This assay is based on the reduction of DPPH by transferring one electron from the antioxidant.
In vitro study was performed as reported previously by our group. In this experiment, 20 μL of the tested compound (from the stock solution), 980 μL EtOH and 1 mL ethanolic solution of DPPH (100 μM) were added in a testing tube in a final volume of 2 mL. The free radical scavenging ability was evaluated by recording the change of absorbance at 517 nm, produced by the reduction of DPPH, after 20 and 60 min at room temperature.
(Loss of DPPH colour is used to gauge radical scavenging.)

Structures are written as SMILES.

For the compound `Cc1c(C)c2c(c(C)c1O)CCC(C)(C(=O)O)O2` (centres unmarked) [Trolox, 6-Hydroxy-2,5,7,8-tetramethyl-chroman2-carboxylic acid, reference compound], the “AAPH % Inhibition 100 μM” value in data set [1] is given as “- 92%”.
Regarding `O=C(/C=C/c1cccs1)c1ccccc1` [Compound 1c, (E)-1-phenyl-3-(thiophen-2-yl)prop-2-en-1-one], the melting point was in the range of 58 to 60 °C. Further, in data set [2], the RM is recorded as −0.52. Moreover, the inhibition at 100 µM on soybean lipoxygenase is 6%.
As for `COc1cc(C2Oc3cc([C@H]4Oc5cc(O)cc(O)c5C(=O)[C@@H]4O)ccc3OC2CO)ccc1O` (some centres unmarked) [Silibinin, reference compound], the viability at 24 h, 100 μM in data set [3] was found to be 14.9%. The cytotoxicity at 100 µM in the data set with A549 cell line is 96.4%.
`CC(Cc1ccc(O)c(O)c1)C(C)Cc1ccc(O)c(O)c1` (centres unmarked) [NDGA, Nordihydroguaretic acid, reference compound]: in data set [4] (20 min), the “RA % 100 μM 20 min” value is listed as 87 - %. In addition, in data set [4] (60 min), the “RA % 100 μM 60 min” value was 93 - %.
